In patent publication US10774051B2, “6-membered heterocyclic derivatives and pharmaceutical composition comprising the same” (Shionogi & Co., Ltd., priority 2015, dated 2020):

Molecular target: human P2X7 receptor (Homo sapiens, UniProt Q99572, R270H/Y155H)
Test: Evaluation of human P2X7 receptor inhibitory activity (Yo-Pro uptake, BzATP stimulation, FLIPR TETRA)
Type: cell-based
Conditions: 1321N1 cells stably expressing human P2X7 receptor; BzATP stimulation, Yo-Pro uptake; read-out: IC50 (antagonistic activity for the human P2X7 receptor)
Outline: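 1321N1 cells stably expressing human P2X7 (T606C/G952A SNP variant), in HBSS buffer pH 7.4-7.5 with Yo-Pro, stimulated with BzATP; compound added 8 min after agonist. Fluorescence followed for 20 min on FLIPR; max-minus-min change gave % inhibition, IC50 by logistic fit.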

Compound | IC50
Cc1ccc(-c2ncco2)cc1Nc1nc(=O)c(F)cn1Cc1ccc(F)c(Cl)c1 [Compound I-0849] | 3 nM
COc1cn(Cc2ccccc2)c(NC2CCc3ccccc3C2)nc1=O (stereo not shown) [Compound I-0187] | 230 nM
COc1cn(Cc2ccccc2)c(Nc2cccc3c2CCCC3)nc1=O [Compound I-0190] | 71 nM
COc1cn(Cc2ccc(F)c(Cl)c2)c(Nc2cc(-c3ncco3)ccc2C)cc1=O [Compound I-0953] | 25 nM
COc1cn(Cc2cc(C)cc(F)c2)c(Nc2cccc(Cl)c2C)nc1=O [Compound I-0425] | 19 nM
COc1cn(Cc2ccc(F)c(Cl)c2)c(Nc2cc3cc[nH]c3cc2C)nc1=O [Compound I-0941] | 12 nM
COc1cn(Cc2ccc(F)cc2)c(Nc2cc3c(cc2C)OCCO3)nc1=O [Compound I-0289] | 27 nM
COc1cnc(Nc2cc3sc(C)nc3cc2C)n(Cc2ccc(F)c(Cl)c2)c1=O [Compound I-0987] | 110 nM
COc1cc(C)cc(Nc2nc(=O)c(OC)cn2Cc2cccc(F)c2)c1C [Compound I-0405] | 2 nM
Cc1cc(OC(F)F)c(C)cc1Nc1nc(=O)c(F)cn1Cc1cc(F)cc(F)c1 [Compound I-0836] | 2 nM

Same assay, conditions: 1321N1 cells stably expressing human P2X7 receptor; BzATP stimulation, Yo-Pro uptake; read-out: IC50 (antagonistic activity for the human P2X7 receptor), class symbol

Compound | IC50
COc1cc(C)c(Nc2nc(=O)c(OC)cn2Cc2cccc(F)c2)cc1OC [Compound I-0274] | < 10 nM
CCc1ccc(Cl)cc1Nc1nc(=O)c(OC)cn1Cc1cccc(Cl)c1 [Compound I-0387] | 10 to 100 nM
CCc1cc2c(cc1Nc1nc(=O)c(OC)cn1Cc1ccc(F)cc1)CCC2 [Compound I-0163] | < 10 nM
COc1cc(C)c(Nc2nc(=O)c(Cl)cn2Cc2ccc(F)cc2)cc1OC [Compound I-0406] | < 10 nM
COc1cn(Cc2ccc(C)cc2)c(Nc2cccc(Cl)c2C)nc1=O [Compound I-0045] | 500 to 1000 nM
Cc1c(Cl)cccc1Nc1nc(=O)c(CC(=O)NCC#N)cn1Cc1ccccc1 [Compound I-0344] | 100 to 500 nM
CCc1cc(OC)ccc1Nc1nc(=O)c(OC)cn1Cc1cccc(F)c1 [Compound I-0261] | < 10 nM
COc1cn(Cc2ccccc2)c(Nc2cc(N3CCCS3(=O)=O)ccc2C)nc1=O [Compound I-0070] | 10 to 100 nM
COc1ccc(C)c(Nc2nc(=O)c(OC)cn2Cc2cc(F)cc(F)c2)c1 [Compound I-0408] | 10 to 100 nM
CCc1cc(F)ccc1Nc1nc(=O)c(OC)cn1Cc1ccccc1 [Compound I-0400] | 100 to 500 nM
COc1cn(Cc2ccccc2)c(Nc2cc(C)c(Cl)cc2C)nc1=O [Compound I-0233] | < 10 nM
COc1cn(Cc2cc(F)cc(Cl)c2)c(Nc2cccc(Cl)c2C)nc1=O [Compound I-0285] | 10 to 100 nM
COc1cc(C)cc(Nc2nc(=O)c(OC)cn2Cc2ccc(F)c(Cl)c2)c1C [Compound I-0449] | < 10 nM
COc1ccc(Nc2nc(=O)c(OC)cn2Cc2ccc(F)c(Cl)c2)c(C)c1C [Compound I-0394] | < 10 nM
COc1cn(Cc2cc(F)cc(Cl)c2)c(Nc2cccc3[nH]c(C)cc23)nc1=O [Compound I-0579] | 10 to 100 nM
COc1cn(Cc2ccccc2COC(F)F)c(Nc2cccc(Cl)c2C)nc1=O [Compound I-0447] | < 10 nM
COc1ccc(C)c(Nc2nc(=O)c(OC)cn2Cc2ccccc2)c1 [Compound I-0074] | 10 to 100 nM

Compound | IC50
Cc1c(Cl)cccc1Nc1nc(=O)c(NC(=O)OC(C)(C)C)cn1Cc1ccccc1 [Compound I-0021] | 100 to 500 nM
COc1cc(C)cc(Nc2nc(=O)c(OC)cn2Cc2cc(F)cc(Cl)c2)c1C [Compound I-0395] | < 10 nM
COc1cc(C)c(Nc2nc(=O)c(Cl)cn2Cc2cccc(Cl)c2)cc1OC [Compound I-0346] | < 10 nM
Cc1c(Cl)cccc1Nc1nc(=O)c(CC(=O)O)cn1Cc1ccccc1 [Compound I-0025] | 500 to 1000 nM
COc1cn(Cc2ccc(F)c(F)c2)c(Nc2cc(OCC(F)(F)F)ccc2C)nc1=O [Compound I-0495] | 10 to 100 nM
CCc1cc(OC)c(OC)cc1Nc1nc(=O)c(OC)cn1Cc1ccc(F)c(F)c1 [Compound I-0272] | < 10 nM
CCc1cc(OC)ccc1Nc1nc(=O)c(OC)cn1Cc1cccc(Cl)c1 [Compound I-0263] | < 10 nM
COc1cn(Cc2ccccc2)c(Nc2ccc(OC(F)F)cc2C)nc1=O [Compound I-0364] | 100 to 500 nM
COc1cn(Cc2ccc(F)c(Cl)c2)c(Nc2cccc(C)c2Cl)nc1=O [Compound I-0483] | < 10 nM
Cc1cccc(Nc2nc(=O)c(Br)cn2Cc2ccccc2)c1C [Compound I-0108] | 10 to 100 nM
COc1cn(Cc2ccc(F)c(F)c2)c(Nc2cc(-c3nnco3)ccc2C)nc1=O [Compound I-0523] | 10 to 100 nM
COc1cc(C)c(Nc2nc(=O)c(OC)cn2Cc2ccc(F)c(Cl)c2)cc1C [Compound I-0230] | < 10 nM
COc1cc(C)c(Nc2nc(=O)c(OC)cn2Cc2ccc(F)cc2)cc1C [Compound I-0282] | < 10 nM
COc1cc(C)cc(Nc2nc(=O)c(OC)cn2Cc2ccc(F)cc2)c1C [Compound I-0560] | < 10 nM
COc1cn(Cc2ccccc2)c(Nc2ccc(Cl)c(Cl)c2Cl)nc1=O [Compound I-0132] | 100 to 500 nM
COc1cn(Cc2ccccc2)c(Nc2cccc(-n3cccc3)c2C)nc1=O [Compound I-0091] | 100 to 500 nM
COc1cn(Cc2ccccc2)c(Nc2cc(Br)ccc2Cl)nc1=O [Compound I-0144] | 100 to 500 nM

Same assay, conditions: antagonistic activity for the human P2X7 receptor; read-out: IC50

Compound | IC50
COc1cn(Cc2ccccc2)c(Nc2cc(-c3cccnc3)ccc2C)nc1=O [Compound I-0690] | 10 to 100 nM
CCc1ccc(OC)cc1Nc1nc(=O)c(OC)cn1Cc1cc(F)c(F)c(F)c1 [Compound I-0673] | < 10 nM
Cc1cc2c(cc1Nc1nc(=O)c(F)cn1Cc1cc(F)cc(F)c1)COC2 [Compound I-1027] | 10 to 100 nM
COc1ccc(Cl)c(Nc2nc(=O)c(OC)cn2Cc2cc(F)cc(F)c2)c1 [Compound I-0639] | 10 to 100 nM
COc1ccc(C)c(Nc2nc(=O)c(F)cn2Cc2ccc(F)c(F)c2)c1 [Compound I-1068] | < 10 nM
Cc1cc2c(cc1Nc1nc(=O)c(F)cn1Cc1ccc(F)c(F)c1)CCO2 [Compound I-1072] | < 10 nM
COc1cc(Nc2nc(=O)c(OC)cn2Cc2cc(F)cc(Cl)c2)c(C)cc1F [Compound I-0780] | 10 to 100 nM
COc1ccc(Nc2nc(=O)c(F)cn2Cc2cc(F)c(F)c(F)c2)c(C)n1 [Compound I-1036] | 10 to 100 nM
Cc1nc2ccc(Nc3nc(=O)c(F)cn3Cc3cc(F)cc(F)c3)c(C)c2s1 [Compound I-1198] | < 10 nM
COCc1cn(Cc2cc(F)c(F)c(F)c2)c(Nc2cc(CO)ccc2C)nc1=O [Compound I-1152] | < 10 nM
COc1nc(C)c(Nc2nc(=O)c(F)cn2Cc2cc(F)c(F)c(F)c2)cc1C [Compound I-1000] | < 10 nM
CCOc1cn(Cc2ccccc2)c(Nc2cc(OC)c(OC)cc2C)nc1=O [Compound I-0759] | 10 to 100 nM
Cc1cc(OC(F)F)ccc1Nc1nc(=O)c(F)cn1Cc1cc(F)c(F)c(F)c1 [Compound I-1039] | 10 to 100 nM
COc1ccc(C)c(Nc2nc(=O)c(C(=O)O)cn2Cc2cc(F)c(F)c(F)c2)c1 [Compound I-1128] | 10 to 100 nM
CCOc1cc(C)c(Nc2nc(=O)c(F)cn2Cc2cc(F)cc(F)c2)cc1F [Compound I-1061] | 10 to 100 nM
Cc1cc(C)c(Nc2nc(=O)c(F)cn2Cc2ccc(F)c(Cl)c2)cc1CO [Compound I-1089] | < 10 nM
CCOc1ccc(Nc2nc(=O)c(F)cn2Cc2ccc(F)c(F)c2)c(C)c1 [Compound I-1048] | 10 to 100 nM
COc1c(C)ccc(Nc2nc(=O)c(OC)cn2Cc2cc(F)cc(Cl)c2)c1C [Compound I-0610] | 10 to 100 nM

Compound | IC50
CCc1cc(OC)ccc1Nc1nc(=O)c(F)cn1Cc1cc(F)c(F)c(F)c1 [Compound I-1197] | < 10 nM
CCc1cc(F)c(OC)cc1Nc1nc(=O)c(F)cn1Cc1cc(F)c(F)c(F)c1 [Compound I-1211] | < 10 nM
COc1cc(C)c(Nc2nc(=O)cnn2Cc2cc(F)c(F)c(F)c2)cc1Cl [Compound I-1278] | < 10 nM
COc1cn(Cc2ccccc2)c(Nc2cc(OC(F)(F)F)ccc2C)nc1=O [Compound I-0691] | 100 to 500 nM
Cc1ccc(-c2ncco2)cc1Nc1nc(=O)c(Cl)cn1Cc1ccc(F)c(Cl)c1 [Compound I-0852] | < 10 nM
Cc1cc(OC(F)F)c(C)cc1Nc1nc(=O)c(F)cn1Cc1ccc(F)c(F)c1 [Compound I-0835] | < 10 nM
COc1cn(Cc2ccc(F)c(F)c2)c(Nc2cccc(SC)c2C)nc1=O [Compound I-0606] | < 10 nM
COc1cc(Nc2nc(=O)c(OC)cn2Cc2ccc(F)c(Cl)c2)c(C)cc1C [Compound I-0586] | < 10 nM
COc1ccc(C)c(Nc2nc(=O)c(CO)nn2Cc2cc(F)c(F)c(F)c2)c1 [Compound I-1246] | < 10 nM
COc1cn(Cc2cc(F)c(F)c(F)c2)c(Nc2ccc(OCF)cc2C)nc1=O [Compound I-0943] | < 10 nM
COCc1cn(Cc2cc(F)c(F)c(F)c2)c(Nc2ccc(OC)cc2C)nc1=O [Compound I-1140] | 10 to 100 nM
COc1ccc(Cl)c(Nc2nc(=O)c(OC)cn2Cc2cc(F)c(F)c(F)c2)c1 [Compound I-0846] | < 10 nM
COc1cn(Cc2ccc(F)c(Cl)c2)c(Nc2cc(OC(F)F)ccc2C)nc1=O [Compound I-0871] | 10 to 100 nM
CCOc1c(C)cccc1Nc1nc(=O)c(F)cn1Cc1cc(F)c(F)c(F)c1 [Compound I-1223] | < 10 nM
COc1ccc(Nc2nc(=O)c(F)cn2Cc2cc(F)c(F)c(F)c2)c(OC)c1C [Compound I-1243] | < 10 nM
Cc1cc2c(cc1Nc1nc(=O)c(F)cn1Cc1cc(F)cc(F)c1)CCO2 [Compound I-1001] | < 10 nM
COc1cn(Cc2cc(F)cc(Cl)c2)c(Nc2cc(N3CCOCC3)ccc2C)nc1=O [Compound I-0737] | 10 to 100 nM
